According to US20230365576A1, “BRM Targeting Compounds And Associated Methods Of Use” (Prelude Therapeutics Incorporated, priority 2022, published 2023):

Legend:
SMARCA4 = biological target: T1, SMARCA4 (Homo sapiens, UniProt P51532); test: SMARCA4 HiBiT degradation assay in HeLa cells; format: cell-based; conditions: 18 hours; for Dmax: HeLa
T1 construct: SMARCA4-HiBiT knock-in Hela monoclonal cell (CS3023226) were purchased from Promega; host or cells: HeLa (CRISPR HiBiT knock-in monoclonal line, heterozygous)
T1 sequence (P51532 whole entry): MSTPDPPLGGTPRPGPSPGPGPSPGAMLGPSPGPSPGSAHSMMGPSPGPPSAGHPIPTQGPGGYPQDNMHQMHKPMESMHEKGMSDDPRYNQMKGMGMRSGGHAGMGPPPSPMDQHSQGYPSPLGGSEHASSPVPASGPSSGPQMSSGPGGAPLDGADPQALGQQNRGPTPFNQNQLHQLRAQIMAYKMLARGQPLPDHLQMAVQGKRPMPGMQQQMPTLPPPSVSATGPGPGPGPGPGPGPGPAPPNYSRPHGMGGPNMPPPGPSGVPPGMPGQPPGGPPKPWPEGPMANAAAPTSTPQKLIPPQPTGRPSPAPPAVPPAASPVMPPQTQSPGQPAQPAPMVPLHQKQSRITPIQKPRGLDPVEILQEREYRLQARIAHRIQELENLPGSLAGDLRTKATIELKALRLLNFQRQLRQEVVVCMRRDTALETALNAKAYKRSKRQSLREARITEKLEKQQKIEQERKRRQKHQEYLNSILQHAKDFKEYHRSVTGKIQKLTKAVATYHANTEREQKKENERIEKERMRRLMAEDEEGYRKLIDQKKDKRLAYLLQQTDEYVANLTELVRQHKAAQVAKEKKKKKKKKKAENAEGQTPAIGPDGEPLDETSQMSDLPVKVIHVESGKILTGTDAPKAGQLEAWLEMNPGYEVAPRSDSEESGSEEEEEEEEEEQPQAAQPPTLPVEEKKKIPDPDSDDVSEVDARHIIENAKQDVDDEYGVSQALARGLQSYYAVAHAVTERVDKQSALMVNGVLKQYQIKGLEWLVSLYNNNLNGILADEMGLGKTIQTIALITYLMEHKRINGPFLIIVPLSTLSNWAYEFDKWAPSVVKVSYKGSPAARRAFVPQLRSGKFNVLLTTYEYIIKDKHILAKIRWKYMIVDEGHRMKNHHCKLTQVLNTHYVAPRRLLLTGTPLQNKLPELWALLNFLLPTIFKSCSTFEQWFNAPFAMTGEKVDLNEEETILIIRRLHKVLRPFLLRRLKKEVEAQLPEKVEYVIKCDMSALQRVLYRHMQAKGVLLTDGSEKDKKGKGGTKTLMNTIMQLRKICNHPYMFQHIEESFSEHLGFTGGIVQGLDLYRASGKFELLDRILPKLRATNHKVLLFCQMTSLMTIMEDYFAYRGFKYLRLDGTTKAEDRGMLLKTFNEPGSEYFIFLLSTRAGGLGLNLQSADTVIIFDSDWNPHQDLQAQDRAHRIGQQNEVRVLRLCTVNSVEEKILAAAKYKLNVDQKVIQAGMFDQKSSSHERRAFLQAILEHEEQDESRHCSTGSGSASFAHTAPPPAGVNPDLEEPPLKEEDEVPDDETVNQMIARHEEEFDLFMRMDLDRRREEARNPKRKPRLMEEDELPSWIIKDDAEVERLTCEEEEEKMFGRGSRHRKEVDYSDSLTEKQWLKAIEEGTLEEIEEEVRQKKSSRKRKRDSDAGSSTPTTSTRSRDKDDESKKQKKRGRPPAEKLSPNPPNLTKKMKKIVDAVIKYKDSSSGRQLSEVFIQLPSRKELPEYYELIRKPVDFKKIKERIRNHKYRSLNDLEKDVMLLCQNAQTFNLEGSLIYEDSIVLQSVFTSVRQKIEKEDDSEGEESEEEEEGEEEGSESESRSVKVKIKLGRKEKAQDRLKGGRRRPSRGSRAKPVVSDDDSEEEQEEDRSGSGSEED
Procedure: (§1) Example A. SMARCA2 HiBiT and SMARCA4 HiBiT Degradation Assay
(§2) Preparation of SMARCA2/4-HiBiT Knock-In Cells
(§3) HiBiT peptide knock-in of SMARCA2 in LgBiT expressing HEK293T cells was performed by CRISPR-mediated tagging system as described Promega. The homozygous HiBiT knock-in on c-terminus SMARCA2 was confirmed by sanger sequence. SMARCA2-HiBiT knock-in Hela monoclonal cell (CS302366) and SMARCA4-HiBiT knock-in Hela monoclonal cell (CS3023226) were purchased from Promega. The heterozygous HiBiT-knock-in was confirmed by sanger sequence in both SMARCA2-HiBiT and SMARCA4-HiBiT monoclonal cells.
(§4) SMARCA2 HiBiT and SMARCA4 HiBiT Degradation Assay in HeLa Cells
(§5) Compounds were dissolved in DMSO to make 10 mM stock and 3-fold series dilutions were further conducted keeping the highest concentration 10 μM. NCIH1693 and NCIH520 cells were maintained in PRMI 1640 medium (Corning Cellgro, Catalog #:10-040-CV) supplemented with 10% v/v FBS (GE Healthcare, Catalog #: SH30910.03) by splitting 1:3 twice a week.
(§6) Dispense 10 ul aliquot of prepared Hela-SMARCA2-HiBiT or Hela-SMARCA4-HiBiT cells (1:1 ratio of cells:Trypan Blue (#1450013, Bio-Rad)) onto cell counting slide (#145-0011, Bio-Rad) and obtain cell density and cell viability using cell counter (TC20, Bio-Rad). Remove appropriate volume of resuspended cells from culture flask to accommodate 2500 cells/well @ 20 μL/well. Transfer Hela-HiBiT cells to 50 mL conical (#430290, Corning). Spin down at 1000 rpm for 5 min using tabletop centrifuge (SPINCHRON 15, Beckman). Discard supernatant and resuspend cell pellet in modified EMEM (#30-2003, ATCC) cell culture media containing 10% FBS (F2422-500ML, Sigma), and 1X Penicillin/Streptomycin (200 g/L) (30-002-CI, Corning) to a cell density of 125,000 cells/mL. Dispense 20 μL of resuspended Hela-HiBit cells per well in 384-well TC treated plate (#12-565-343, Thermo Scientific) using standard cassette (#50950372, Thermo Scientific) on Multidrop Combi (#5840310, Thermo Scientific) inside laminar flow cabinet. Dispense test compounds onto plates using digital liquid dispenser (D300E, Tecan). Incubate plates in humidified tissue culture incubator @37° C. for 18 hours. Add 20 μL of prepared Nano-Glo® HiBiT Lytic detection buffer (N3050, Promega) to each well of 384-well plate using small tube cassette (#24073295, Thermo Scientific) on Multidrop Combi, incubate @ RT for 30-60 min. Read plates on microplate reader (Envision 2105, PerkinElmer) using 384 well Ultra-Sensitive luminescence mode. Raw data files and compound information reports are swept into centralized data lake and deconvoluted using automated scripts designed by TetraScience, Inc. Data analysis, curve-fitting and reporting done in Dotmatics Informatics Suite using Screening Ultra module.

SMARCA2 = biological target: T2, SMARCA2 (Homo sapiens, UniProt P51531); test: SMARCA2 HiBiT degradation assay in HeLa cells; format: cell-based; conditions: 18 hours; for DC50: read-out: SMARCA2 IC50; for Dmax: HeLa
T2 construct: SMARCA2-HiBiT knock-in Hela monoclonal cell (CS302366); host or cells: HeLa (CRISPR HiBiT knock-in monoclonal line, heterozygous)
T2 sequence (P51531 whole entry): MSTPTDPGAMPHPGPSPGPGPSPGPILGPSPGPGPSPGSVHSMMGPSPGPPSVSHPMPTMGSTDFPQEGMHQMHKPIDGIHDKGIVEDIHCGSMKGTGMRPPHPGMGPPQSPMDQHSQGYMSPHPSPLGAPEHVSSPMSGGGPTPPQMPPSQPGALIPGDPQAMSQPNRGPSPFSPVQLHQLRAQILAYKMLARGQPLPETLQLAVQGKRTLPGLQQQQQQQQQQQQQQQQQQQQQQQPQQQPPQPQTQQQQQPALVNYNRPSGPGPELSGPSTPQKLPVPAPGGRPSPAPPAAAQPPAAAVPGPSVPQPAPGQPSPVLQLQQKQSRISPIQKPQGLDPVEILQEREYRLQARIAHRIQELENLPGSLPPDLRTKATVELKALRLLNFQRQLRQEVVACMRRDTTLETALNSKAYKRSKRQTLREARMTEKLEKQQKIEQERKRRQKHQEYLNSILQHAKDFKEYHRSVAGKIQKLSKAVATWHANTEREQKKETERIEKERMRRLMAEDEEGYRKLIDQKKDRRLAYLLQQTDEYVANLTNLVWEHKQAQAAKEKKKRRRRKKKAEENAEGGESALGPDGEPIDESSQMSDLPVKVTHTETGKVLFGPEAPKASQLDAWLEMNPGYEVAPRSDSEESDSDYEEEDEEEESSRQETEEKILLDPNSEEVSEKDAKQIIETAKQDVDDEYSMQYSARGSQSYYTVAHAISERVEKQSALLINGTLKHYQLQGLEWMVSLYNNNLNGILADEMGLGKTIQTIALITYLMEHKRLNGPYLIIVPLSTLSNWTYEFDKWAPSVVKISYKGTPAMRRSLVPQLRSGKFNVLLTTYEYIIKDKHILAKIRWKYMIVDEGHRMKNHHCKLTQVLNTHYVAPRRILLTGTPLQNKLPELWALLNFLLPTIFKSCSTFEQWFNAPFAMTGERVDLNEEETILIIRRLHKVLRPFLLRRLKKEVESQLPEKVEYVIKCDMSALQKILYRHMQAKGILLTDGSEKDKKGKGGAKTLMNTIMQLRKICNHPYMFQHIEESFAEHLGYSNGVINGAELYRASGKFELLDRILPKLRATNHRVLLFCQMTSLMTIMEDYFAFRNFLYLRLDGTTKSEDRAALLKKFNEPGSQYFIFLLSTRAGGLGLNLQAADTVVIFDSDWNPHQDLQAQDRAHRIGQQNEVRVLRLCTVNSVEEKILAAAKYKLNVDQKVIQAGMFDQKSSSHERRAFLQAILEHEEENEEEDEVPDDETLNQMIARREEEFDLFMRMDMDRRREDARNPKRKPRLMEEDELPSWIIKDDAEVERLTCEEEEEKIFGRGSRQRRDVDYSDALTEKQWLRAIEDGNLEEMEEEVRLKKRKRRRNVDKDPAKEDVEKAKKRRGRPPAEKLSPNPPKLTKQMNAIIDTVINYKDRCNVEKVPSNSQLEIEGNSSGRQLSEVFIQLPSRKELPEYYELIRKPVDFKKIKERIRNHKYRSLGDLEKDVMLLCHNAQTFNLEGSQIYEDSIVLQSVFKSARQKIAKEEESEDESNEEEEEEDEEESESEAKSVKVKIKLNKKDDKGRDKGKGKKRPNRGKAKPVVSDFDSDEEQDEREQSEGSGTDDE
Procedure: as §1, §2, §3, §4, §5, §6

DC50 (SMARCA4) [nM] | Dmax (SMARCA4) [%] | DC50 (SMARCA2) [nM] | Dmax (SMARCA2) [%] | SMARCA4 DMax % (SMARCA4) | SMARCA2 DMax % (SMARCA2) | Compound
< 100 | < 50 | < 100 | 50 to 75 | – | – | CCC12CNc3nnc(-c4cccc(F)c4O)cc3N1CCN(C(=O)N1CCN(CC3CCN(c4ccc5c(c4)C(=O)N(C4CCC(=O)NC4=O)C5=O)CC3)CC1(C)C)C2 (mixture of isomers) [Example 32, 2-(2,6-dioxopiperidin-3-yl)-5-(4-((4-(6a-ethyl-2-(3-fluoro-2-hydroxyphenyl)-6,6a,7,8,9,10-hexahydro-5H-pyrazino[1′,2′:4,5]pyrazino[2,3-c]pyridazine-8-carbonyl)-3,3-dimethylpiperazin-1-yl)methyl)piperidin-1-yl)isoindoline-1,3-dione]
< 100 | 50 to 75 | < 100 | > 75 | – | – | CCC1CN(CC2CCN(c3ccc4c(c3)C(=O)N(C3CCC(=O)NC3=O)C4)CC2)CCN1C(=O)N1CCN2c3cc(-c4cc(F)cc(F)c4O)nnc3NC[C@H]2C1 (mixture of isomers) [Example 35, 3-(6-(4-((4-((S)-2-(3,5-difluoro-2-hydroxyphenyl)-6,6a,7,8,9,10-hexahydro-5H-pyrazino[1′,2′:4,5]pyrazino[2,3-c]pyridazine-8-carbonyl)-3-ethylpiperazin-1-yl)methyl)piperidin-1-yl)-1-oxoisoindolin-2-yl)piperidine-2,6-dione]
< 100 | < 50 | < 100 | > 75 | – | – | C[C@@H]1CN(C[C@H]2CCN(c3ccc4c(c3)C(=O)N(C3CCC(=O)NC3=O)C4)C[C@@H]2F)C[C@H](C)N1C(=O)N1CCN2c3cc(-c4cc(F)cc(F)c4O)nnc3NC[C@H]2C1 (mixture of isomers) [Example 42, 3-(6-((rac-3R,4R)-4-(((3S,5R)-4-((S)-2-(3,5-difluoro-2-hydroxyphenyl)-6,6a,7,8,9,10-hexahydro-5H-pyrazino[1′,2′:4,5]pyrazino[2,3-c]pyridazine-8-carbonyl)-3,5-dimethylpiperazin-1-yl)methyl)-3-fluoropiperidin-1-yl)-1-oxoisoindolin-2-yl)piperidine-2,6-dione]
< 100 | – | < 100 | > 75 | A (A=Dmax>75%) | – | CC1(C)CN(CC2CCN(c3ccc4c(c3)C(=O)N(C3CCC(=O)NC3=O)C4)CC2)CCN1C(=O)N1CCN2c3cc(-c4cccc(F)c4O)nnc3NCC2(C)C1 (single isomer, unassigned) [Example 9, 3-(6-(4-((4-(2-(3-fluoro-2-hydroxyphenyl)-6a-methyl-6,6a,7,8,9,10-hexahydro-5H-pyrazino[1′,2′:4,5]pyrazino[2,3-c]pyridazine-8-carbonyl)-3,3-dimethylpiperazin-1-yl)methyl)piperidin-1-yl)-1-oxoisoindolin-2-yl)piperidine-2,6-dione]
< 100 | – | < 100 | – | C (C=Dmax<50%) | A (A=Dmax>75%) | CC1(C)CN(CC2CCN(c3ccc4c(c3)C(=O)N(C3CCC(=O)NC3=O)C4)CC2)CCN1C(=O)N1CCN2c3cc(-c4cccc(F)c4O)nnc3NCC2(C)C1 (single isomer, unassigned) [Example 10, 3-(6-(4-((4-(2-(3-fluoro-2-hydroxyphenyl)-6a-methyl-6,6a,7,8,9,10-hexahydro-5H-pyrazino[1′,2′:4,5]pyrazino[2,3-c]pyridazine-8-carbonyl)-3,3-dimethylpiperazin-1-yl)methyl)piperidin-1-yl)-1-oxoisoindolin-2-yl)piperidine-2,6-dione]
< 100 | – | < 100 | > 75 | B (B=50%<Dmax≤75%) | – | C[C@@H]1CN(CC2CCN(c3ccc4c(c3)C(=O)N(C3CCC(=O)NC3=O)C4)CC2)C[C@H](C)N1C(=O)N1CCN2c3cc(-c4cccc(F)c4O)nnc3NCC2(C)C1 (single isomer, unassigned) [Example 11]
< 100 | – | < 100 | – | A (A=Dmax>75%) | A (A=Dmax>75%) | C[C@@H]1CN(CC2CCN(c3ccc4c(c3)C(=O)N(C3CCC(=O)NC3=O)C4)CC2)C[C@H](C)N1C(=O)N1CCN2c3cc(-c4cccc(F)c4O)nnc3NCC2(C)C1 (single isomer, unassigned) [Example 12]
< 100 | < 50 | < 100 | > 75 | – | – | C[C@@H]1CN(CC2CCN(c3ccc4c(c3)C(=O)N(C3CCC(=O)NC3=O)C4)CC2)C[C@@H](C)N1C(=O)N1CCN2c3cc(-c4cccc(F)c4O)nnc3NCC2(C)C1 (single isomer, unassigned) [Example 13]
< 100 | 50 to 75 | < 100 | > 75 | – | – | C[C@@H]1CN(CC2CCN(c3ccc4c(c3)C(=O)N(C3CCC(=O)NC3=O)C4)CC2)C[C@@H](C)N1C(=O)N1CCN2c3cc(-c4cccc(Cl)c4O)nnc3NCC2(C)C1 (single isomer, unassigned) [Example 14]
< 100 | < 50 | < 100 | > 75 | – | – | C[C@@H]1CN(CC2CCN(c3ccc4c(c3)C(=O)N(C3CCC(=O)NC3=O)C4)CC2)C[C@@H](C)N1C(=O)N1CCN2c3cc(-c4cc(F)cc(F)c4O)nnc3NCC2(C)C1 (single isomer, unassigned) [Example 28]
< 100 | > 75 | < 100 | > 75 | – | – | C[C@@H]1CN(CC2CCN(c3ccc4c(c3)C(=O)N(C3CCC(=O)NC3=O)C4)CC2)C[C@H](C)N1C(=O)N1CCN2c3cc(-c4cc(F)cc(F)c4O)nnc3NCC2(C)C1 (single isomer, unassigned) [Example 34]
< 100 | – | < 100 | > 75 | – | – | O=C1CCC(N2Cc3ccc(N4CC[C@H](CN5C[C@@H]6[C@H](C5)[C@H]6CN5CCN6c7cc(-c8cc(F)cc(F)c8O)nnc7NC[C@H]6C5)[C@@H](F)C4)cc3C2=O)C(=O)N1 (single isomer, unassigned) [Example 37]
< 100 | < 50 | < 100 | > 75 | – | – | C[C@H]1CN2c3cc(-c4cc(F)cc(F)c4O)nnc3NC[C@H]2CN1C[C@H]1[C@@H]2CN(C[C@H]3CCN(c4ccc5c(c4)C(=O)N(C4CCC(=O)NC4=O)C5)C[C@@H]3F)C[C@@H]21 (single isomer, unassigned) [Example 39]
< 100 | 50 to 75 | < 100 | – | – | B (B=50%<Dmax≤75%) | O=C1CCC(N2Cc3ccc(N4CCC(CN5C[C@@H]6[C@H](C5)[C@H]6CN5CCN6c7cc(-c8cc(F)cc(F)c8O)nnc7NC[C@H]6C5)C(F)(F)C4)cc3C2=O)C(=O)N1 (single isomer, unassigned) [Example 40]
< 100 | – | < 100 | – | B (B=50%<Dmax≤75%) | A (A=Dmax>75%) | O=C1CCC(N2Cc3ccc(N4CCC(CN5C[C@@H]6[C@H](C5)[C@H]6CN5CCN6c7cc(-c8cc(F)cc(F)c8O)nnc7NC[C@H]6C5)C(F)(F)C4)cc3C2=O)C(=O)N1 (single isomer, unassigned) [Example 41]
< 100 | < 50 | < 100 | > 75 | – | – | C[C@@H]1CN(C[C@H]2CCN(c3ccc4c(c3)C(=O)N(C3CCC(=O)NC3=O)C4)C[C@@H]2F)C[C@H](C)N1C(=O)N1CCN2c3cc(-c4cccc(F)c4O)nnc3NC[C@H]2C1 (single isomer, unassigned) [Example 44]
< 100 | > 75 | < 100 | > 75 | – | – | CCC12CNc3nnc(-c4cc(F)cc(F)c4O)cc3N1CCN(C(=O)N1[C@H](C)CN(CC3CCN(c4ccc5c(c4)C(=O)N(C4CCC(=O)NC4=O)C5)CC3)C[C@@H]1C)C2 (single isomer, unassigned) [Example 59]
